Legend:
[1] = Absorption when orally ingested: converted resveratrol concentration in plasma; type: in vivo, human
Protocol: Blood concentrations of resveratrol metabolites when resveratrol 3-O-α-glucoside and resveratrol 3-O-β-glucoside were orally ingested were examined, and the absorption properties of resveratrol 3-O-α-glucoside and resveratrol 3-O-β-glucoside were compared.
To 100 mL of water, 86 mg of resveratrol 3-O-α-glucoside or resveratrol 3-O-β-glucoside (Tokyo Chemical Industry Co., Ltd.) was added, and the mixture was stirred for 1 minute. The resulting solution was orally ingested by a subject at a time. Blood was collected prior to, 30 minutes after, and 1, 2, 3, and 4 hours after the ingestion, and the plasma was separated by centrifugation. The test was performed three times for each of the samples. In order to quantify the amount of resveratrol derivatives in the collected plasma samples, 10 μL of β-glucronidase Type H-2 from Sigma-Aldrich Co. LLC. (glucuronidase activity: 115003 units/mL, sulfatase activity: 556 units/mL; a 5-fold diluted solution in a 100 mM acetate buffer solution (pH 5.5)) was added to 10 μL of the collected plasma, and enzyme treatment was performed at 37° C. for about 18 hours. After the reaction, 80 μL of 60% acetonitrile was added, and subsequently 100 μL of water was further added thereto, and the mixture was stirred. The filtrate obtained by filtering through a membrane (0.45 μm) was subjected to HPLC analysis. A converted resveratrol concentration was determined by converting the concentration of resveratrol derivatives in each of the plasma samples into the concentration of resveratrol, and maximum blood concentrations and areas under the curve (AUCs) 0 to 4 hours after the ingestion were determined.

[2] = Solubility in solvent containing 1,3-butylene glycol; type: physicochemical
Protocol: (§1) Approximately 40 mg each of resveratrol 3-O-α-glucoside, resveratrol (Tokyo Chemical Industry Co., Ltd.), and resveratrol 3-O-β-glucoside (Tokyo Chemical Industry Co., Ltd.) was weighed, approximately 70 mg of a solvent (whose composition is shown in Table 18) containing ethanol (Wako Pure Chemical Industries, Ltd.) was added thereto, and the mixture was soaked in a water bath at 25° C. under light-tight conditions, and incubated for 15 hours with occasional stirring. After 15 hours, each of the samples was filtered through a 0.45 μm centrifugal filter, and then the concentration of each of the components in the filtrate was analyzed using HPLC under the same conditions as those described in Production Example 1 above. The dissolved concentration (w/v %) at 25° C. was thus determined.
The solubility of resveratrol 3-O-α-glucoside was evaluated under the same conditions as those described in Example 18 above, except that a solvent (whose composition is shown in Table 21) containing 1,3-butylene glycol (Wako Pure Chemical Industries, Ltd.) was used.

[3] = test system: human skin model (EpiDerm EPI-200; MatTek); test: Skin cell activation effect, MTT survival rate in three-dimensional human skin model; type: cell-based; conditions: 100 μL, 72 hours, water control = 100%
Protocol: Using a three-dimensional human skin model, the skin cell activation effect of resveratrol 3-O-α-glucoside was investigated.
Resveratrol 3-O-α-glucoside was prepared into an aqueous solution having a concentration of 0.02, 0.05, 0.07, or 0.1 wt %, and the resulting solution was used as a sample solution. One-hundred microliters of the sample solution were administered to the horny layer side of the human skin model (EpiDerm EPI-200; MatTek), and cultured in 5 mL of a special medium (EPI-100-ASY) at 37° C. for 72 hours. After the culture, the survival rate of cells in the skin model was measured using the MTT (Thiazolyl Blue Tetrazolium Bromide) method based on the manual, and a relative ratio of the survival rate (cell growth improvement rate; %) after the administration of each of the sample solutions was calculated, taking as 100% the survival rate of a control group to which water not containing resveratrol 3-O-α-glucoside was administered.

[4] = test system: skin model (MEL-312B; MatTek); test: Melanogenesis suppressing effect in skin model (amount of melanin, visual observation); type: cell-based; conditions: 16 days; for Relative Amount of Melanin: PBS control group = 100%; for Visual Observation: compared with PBS control group
Protocol: Resveratrol 3-O-α-glucoside, resveratrol (Tokyo Chemical Industry Co., Ltd.), or resveratrol 3-O-β-glucoside (Tokyo Chemical Industry Co., Ltd.) was prepared into a 0.2 wt % solution or suspension with the addition of PBS, and the resulting solution or suspension was used as a test substance. A skin model (MEL-312B; MatTek) was used, and 50 μL of the test substance was added to the horny layer side of the skin model and cultured in a special medium (EPI-100NMM-113; MatTek) at 37° C. for 16 days. On days 2, 4, 7, 9, 11, and 14, the medium and the test substance were replaced with fresh ones. As a control group, the same operation was performed using PBS instead of the test substance.
After 16 days of culture, the skin model was visually observed, and the amount of melanin in the skin model was evaluated. The amount of melanin was measured using the following method. Initially, the collected skin model was subjected to enzymatic degradation by proteinase-K, and was subsequently homogenated in PBS containing 1% triton X-100. Melanin was then extracted by washing with 10% TCA and ethanol. Next, the extracted melanin was dissolved in 0.5 mL of 1N-NaOH containing 10% DMSO at 80° C. for 2 hours, and the amount of melanin was quantified by measuring absorbance at 470 nm.
Resveratrol 3-O-α-glucoside was prepared into a 0.2 wt % solution, a 0.1 wt % solution, or a 0.01 wt % solution with the addition of PBS. The resulting solution was used as a test substance, and the melanogenesis suppressing effect was evaluated using the same method as that of Example 1 above. […]

[5] = Solubility in solvent containing ethanol; type: physicochemical
Protocol: as §1

## OC[C@H]1O[C@H](Oc2cc(O)cc(C=Cc3ccc(O)cc3)c2)[C@H](O)[C@@H](O)[C@@H]1O [Resveratrol 3-O-α-Glucoside, resveratrol 3-O-α-glucoside]
[1]; human, in vivo, po, 86 mg
  AUC relative to resveratrol 3-O-β-glucoside: 2.8 times
[2]
  dissolved concentration: exceeded 20 w/v %
[3]; 0.02 wt % aqueous solution
  Cell Growth Improvement Rate (%): 106%
[3]; 0.05 wt % aqueous solution
  Cell Growth Improvement Rate (%): 115%
[3]; 0.07 wt % aqueous solution
  Cell Growth Improvement Rate (%): 116%
[3]; 0.1 wt % aqueous solution
  Cell Growth Improvement Rate (%): 117%
[4]; 0.01 wt % in PBS
  Relative Amount of Melanin: 88%
  Visual Observation: slightly whiter than the
[4]; 0.1 wt % in PBS
  Relative Amount of Melanin: 67%
[4]; 0.2 wt % in PBS, 50 μL
  Relative Amount of Melanin: 46%
[5]
  dissolved concentration: exceeded 30 w/v %
[5]; 15 h
  Dissolved Concentration (w/v %) at 25° C.: 0.3 w/v %

## OC[C@H]1O[C@@H](Oc2cc(O)cc(/C=C/c3ccc(O)cc3)c2)[C@H](O)[C@@H](O)[C@@H]1O [Resveratrol 3-O-β-Glucoside, resveratrol 3-O-β-glucoside]
[1]; 86 mg in 100 mL water orally, one subject, three tests, converted resveratrol concentration after glucuronidase/sulfatase treatment
  Maximum Plasma Concentration: 282 ng/mL
[1]; 86 mg orally, 0 to 4 hours after ingestion, converted resveratrol concentration
  Area under the Curve ((mg/L) · Hr): 0.9 (mg/L) · Hr
[2]; 1,3-Butylene Glycol:Water 0:100 (weight ratio)
  Dissolved Concentration (w/v %) at 25° C.: 0.04 w/v %
[2]; 1,3-Butylene Glycol:Water 5:95 (weight ratio)
  Dissolved Concentration (w/v %) at 25° C.: 0.04 w/v %
[2]; 1,3-Butylene Glycol:Water 10:90 (weight ratio)
  Dissolved Concentration (w/v %) at 25° C.: 0.07 w/v %
[2]; 1,3-Butylene Glycol:Water 15:85 (weight ratio)
  Dissolved Concentration (w/v %) at 25° C.: 0.1 w/v %
[2]; 1,3-Butylene Glycol:Water 20:80 (weight ratio)
  Dissolved Concentration (w/v %) at 25° C.: 0.2 w/v %
[2]; 1,3-Butylene Glycol:Water 25:75 (weight ratio)
  Dissolved Concentration (w/v %) at 25° C.: 0.3 w/v %
[2]; 1,3-Butylene Glycol:Water 50:50 (weight ratio)
  Dissolved Concentration (w/v %) at 25° C.: 2.8 w/v %
[2]; 1,3-Butylene Glycol:Water 75:25 (weight ratio)
  Dissolved Concentration (w/v %) at 25° C.: 7.5 w/v %
[2]; 1,3-Butylene Glycol:Water 90:10 (weight ratio)
  Dissolved Concentration (w/v %) at 25° C.: 9.7 w/v %
[2]; 1,3-Butylene Glycol:Water 100:0 (weight ratio)
  Dissolved Concentration (w/v %) at 25° C.: 7.2 w/v %
[4]; 0.2 wt % in PBS, 50 μL to horny layer side
  Visual Observation: the same as the control
[4]; 0.2 wt % in PBS, 50 μL
  Relative Amount of Melanin: 79%
[5]; Ethanol:Water 0:100 (weight ratio), 15 hours
  Dissolved Concentration (w/v %) at 25° C.: 0.04 w/v %
[5]; Ethanol:Water 5:95 (weight ratio), 15 hours
  Dissolved Concentration (w/v %) at 25° C.: 0.05 w/v %
[5]; Ethanol:Water 10:90 (weight ratio), 15 hours
  Dissolved Concentration (w/v %) at 25° C.: 0.06 w/v %
[5]; Ethanol:Water 15:85 (weight ratio), 15 hours
  Dissolved Concentration (w/v %) at 25° C.: 0.1 w/v %
[5]; Ethanol:Water 20:80 (weight ratio), 15 hours
  Dissolved Concentration (w/v %) at 25° C.: 0.2 w/v %
[5]; Ethanol:Water 25:75 (weight ratio), 15 hours
  Dissolved Concentration (w/v %) at 25° C.: 0.4 w/v %
[5]; Ethanol:Water 30:70 (weight ratio), 15 hours
  Dissolved Concentration (w/v %) at 25° C.: 0.7 w/v %
[5]; Ethanol:Water 40:60 (weight ratio), 15 hours
  Dissolved Concentration (w/v %) at 25° C.: 2.6 w/v %
[5]; Ethanol:Water 50:50 (weight ratio), 15 hours
  Dissolved Concentration (w/v %) at 25° C.: 5.3 w/v %
[5]; Ethanol:Water 75:25 (weight ratio), 15 hours
  Dissolved Concentration (w/v %) at 25° C.: 13.8 w/v %
[5]; Ethanol:Water 90:10 (weight ratio), 15 hours
  Dissolved Concentration (w/v %) at 25° C.: 7.3 w/v %
[5]; Ethanol:Water 100:0 (weight ratio), 15 hours
  Dissolved Concentration (w/v %) at 25° C.: 2.4 w/v %

Reference: patent US10149809B2, “Skin aging inhibitor and concentrate of resveratrol 3-O-α-glucoside” (priority 2014, dated 2018)
